# Data from patent publication US20070275100A1, “Use of gaseous nitric oxide as an anti-cancer agent” (priority 1998, published 2007).
# Values joined by “and” are separate entries in the source; they are usually repeats but may differ in a detail not shown here. Equal values may be shown once.
# Columns and labels:
# [1] = tested on: A549-epithelial lung carcinoma cells; experiment: MTS proliferation assay, A549 cells under continuous gNO exposure (Example 1); type: cell-based, human; conditions: for Corrected Average: blank subtracted; for survivability: 24 hours continuous exposure, compared to air (control)
# Protocol: (gNO) 200 ppm and 350 ppm compared to air (control) on the survival of a representative line of cancer cells. Cancer cell lines (A549-epithelial lung carcinoma cells and H460-epithelial metastatic; large cell lung cancer cells) were prepared in F12 medium and suspended in six 96-well plates (3 treatment and 3 controls). […] The plates then were removed and cell viability assessed by an MTS proliferation assay.
# When exposed to 350 ppm of gNO, however, cancer cell survival rates decrease dramatically.
# A549 = experiment: MTS cell proliferation assay, 25,000 ppm gNO (Example 4), A549; type: cell-based, human
# Source text: (§1) The purpose of this example is to illustrate the tumorcidal activity of high-dosage gNO. We examined the cellular sensitivity to 25,000 ppm of gNO on 5 non-small cell lung cancer (NSCLC) cells lines by an MTS cell proliferation assay.
# (§2) Human lung cancer cell lines A549, NCI-H23, NCI-H460, HTB-58, H2170, and H441 (commercially available from American Type Culture Collection (“ATCC”), Manassas, Va.) were maintained in culture medium recommended by ATCC. All media were supplemented with 1% penicillin/streptomycin and 10% fetal bovine serum (commercially available from Invitrogen Gibco-BRL, Burlington, Ontario, Canada). […]
# (§3) After 24 hours, the A549, NCI-H23, NCI-H460, HTB-58, H2170 and H441 cells were treated with 25,000 ppm gNO or air (control) for 1 minute, 3 minutes, 6 minutes, 9 minutes, 10 minutes, 20 minutes, and 30 minutes. Immediately following treatment, the viability of the cells was determined using a colorimetric MTS (3-(4,5-dimethylthiazol-2-yl)-5-(3-carboxymethoxyphenyl)-2-(4-sulfophenyl)-2H-tetrazolium, inner salt) cell proliferation assay (commercially available as the CellTiter 960 Aqueous One Solution Cell Proliferation Assay (MTS) from Promega, Madison, Wis., USA) according to the manufacturer's protocol. […] Absorbance was measured at 490 nm for each well using a micro-plate reader (commercially available from Dynex Technologies, Chantilly, Va., USA). […]
# HTB-58 = experiment: MTS cell proliferation assay, 25,000 ppm gNO (Example 4), HTB-58; type: cell-based, human
# Source text: as §1, §2, §3
# [2] = tested on: non-small cell lung cancer (NSCLC) cells lines; experiment: MTS cell proliferation assay, 25,000 ppm gNO, NSCLC cell lines taken together (Examples 4 and 5); type: cell-based, human
# Source text: as §1
# Human lung cancer cell lines A549, NCI-H23, NCI-H460, HTB-58, H2170, and H441 (commercially available from American Type Culture Collection (“ATCC”), Manassas, Va.) were maintained in culture medium recommended by ATCC. All media were supplemented with 1% penicillin/streptomycin and 10% fetal bovine serum (commercially available from Invitrogen Gibco-BRL, Burlington, Ontario, Canada). All cell lines were incubated in a humidified incubator at 37° C. supplied with 5% carbon dioxide. The cell lines were tested regularly for the absence of Mycoplasma infections. The cells were routinely maintained in 25 cm tissue culture flasks (commercially available from BD Biosciences Discovery Labware, Oakville, Ontario, Canada) and were harvested by 0.25% trypsin (commercially available from Invitrogen-Gibco-BRL) treatment when they were in a logarithmic phase of growth for all experiments. […]
# as §3, with “USA). The relative percentage of cell survival (viability) was calculated by dividing the absorbance of treated cells by that of control cells for each experimental time point.” for “USA).”
# [3] = tested on: infected wound on the skin; experiment: Topical gNO applied to an infected wound on the skin; type: in vivo; conditions: 200 ppm gNO topically applied
# Source text: For anti-inflammatory applications of high concentrations of gNO, it is hypothesized that the high dose of NO acts as a feedback loop to down regulate iNOS, and/or acts as a antioxidant on peroxynitrite and other reactive oxygen species and/or remove the stimulus such as bacterial load all leading to the amelioration of high levels of NO or its reactants resulting in damaging pathogenesis. This hypothesis is supported by testing results of the Applicant wherein 200 ppm gNO was topically applied to an infected wound on the skin. […] It is hypothesized that the body stopped producing the “bad” NO causing pathogenic inflammation.
# [4] = tested on: bacteria that cause nosocomial pneumonia in the intensive care unit; conditions: continuous in vitro exposure to 200 ppm gNO; cited from earlier work
# [5] = 200 ppm NO, 1 hour, F12 medium, listed as NO
# [6] = 200 ppm NO, 1 hour, HBSS medium
# [7] = 200 ppm NO, 2.5 hours, F12 medium
# [8] = 200 ppm NO, 2.5 hours, F12 medium, listed as NO
# [9] = 200 ppm NO, 2.5 hours, HBSS medium
# [10] = 200 ppm NO, 3.5 hours, F12 medium
# [11] = 200 ppm NO, 3.5 hours, F12 medium, listed as NO
# [12] = 200 ppm NO, 3.5 hours, HBSS medium
# [13] = 350 ppm NO, 2 hours, F12 medium
# [14] = 350 ppm NO, 2 hours, F12 medium, listed as NO
compound,measurement,setting,value
"[N]=O [gNO, nitric oxide]",Average,"[1]; 200 ppm NO, 1 hour, F12 medium",0.852
same,Survival,"[1]; 200 ppm NO, 1 hour, F12 medium",up to 92%
same,Corrected Average,"[1]; 200 ppm NO, 1 hour, F12 medium",0.621
same,"MTS assay reading, individual wells",[1]; [5],0.842 and 0.955 and 0.793 and 0.818 and 0.828 and 0.78 and 0.805 and 0.936 and 0.959 and 0.91 and 0.827 and 0.8 and 0.795 and 0.759 and 0.945 and 0.886
same,Survival,[1]; [5],92%
same,Average,[1]; [6],0.06
same,"MTS assay reading, individual wells",[1]; [6],0.062 (2×) and 0.058 (2×) and 0.057 (2×) and 0.056 (2×) and 0.06 (3×) and 0.067 (2×) and 0.059 and 0.055
same,Survival,[1]; [6],0%
same,Corrected Average,[1]; [6],0
same,Average,[1]; [7],1.276
same,Survival,[1]; [7],up to 90%
same,Corrected Average,[1]; [7],0.918
same,"MTS assay reading, individual wells",[1]; [8],1.261 and 1.178 and 1.33 and 1.422 and 1.454 and 1.458 and 1.354 and 1.105 and 1.348 and 1.082 and 1.329 and 1.237 and 1.272 and 0.995 and 1.284 and 1.299
same,Survival,[1]; [8],90%
same,Average,[1]; [9],0.06
same,"MTS assay reading, individual wells",[1]; [9],0.063 and 0.059 (3×) and 0.058 (2×) and 0.061 and 0.06 (2×) and 0.069 (2×) and 0.057 (2×) and 0.056 and 0.062
same,Survival,[1]; [9],0%
same,Corrected Average,[1]; [9],0
same,Average,[1]; [10],1.529
same,Survival,[1]; [10],up to 87%
same,Corrected Average,[1]; [10],1.059
same,"MTS assay reading, individual wells",[1]; [11],1.587 and 1.525 and 1.665 and 1.444 and 1.642 and 1.332 and 1.639 and 1.551 and 1.567 and 1.863 and 1.335 and 1.325 and 1.575 and 1.227 and 1.561 and 1.625
same,Survival,[1]; [11],87%
same,Average,[1]; [12],0.061
same,"MTS assay reading, individual wells",[1]; [12],0.063 (2×) and 0.059 (3×) and 0.058 (3×) and 0.061 (2×) and 0.06 and 0.069 and 0.057 and 0.056 and 0.07
same,Survival,[1]; [12],0%
same,Corrected Average,[1]; [12],0
same,survivability,[1]; 200 ppm gNO,greater than 90%
same,Average,[1]; [13],0.110
same,Survival,[1]; [13],about 2%
same,Corrected Average,[1]; [13],0.009
same,"MTS assay reading, individual wells",[1]; [14],0.104 and 0.115 and 0.106 (2×) and 0.110 and 0.116 and 0.119
same,Survival,[1]; [14],1%
same,survivability,[1]; 350 ppm gNO,1%
same,IC50 (exposure time),A549,about 3 minutes
same,IC50 (exposure time),HTB-58,about 7 minutes
same,viability at 25000 ppm,"[2]; Homo sapiens, 0.15 h, at 9 minutes, read-out: viability, mean value of the other three NSCLC lines",10.7 ± 2.08%
same,"cells killed, all five cancer cell lines","[2]; between 6 and 9 minutes, Example 4",75-95%
same,"cells killed, all five cancer cell lines","[2]; between about 6 and about 9 minutes, repeat study, Example 5",75-95%
same,bacterial load,[3],significantly reduced
same,inflammatory bodies (histological results),[3],significant reduction
same,serum NOX levels,[3]; compared to the infected control,lower
same,time to cytocidal effect,[4],≤ 5 h
